{"source": "paper PMC6891286", "about": "“Towards the Development of an In vivo Chemical Probe for Cyclin G Associated Kinase (GAK)” (Molecules, 2019)", "assay_in_all_cases": "KINOMEscan", "format_in_all_cases": "binding", "details_in_all_cases": "35 at 1 µM; read-out: % inhibition", "key": {"BTK": {"target": "T1, BTK (Homo sapiens, UniProt Q06187)", "T1 construct": "purchased Eurofins DiscoverX (KINOMEscan)", "method": "(§1) KinomeScan Assay on 35 was performed as previously described at EuroFins DiscoverX (Fremont, CA, USA)."}, "BRK": {"target": "T2, BRK (Homo sapiens, UniProt Q13882)", "T2 construct": "purchased Eurofins DiscoverX (KINOMEscan)", "method": "as §1"}, "ACVR2B": {"target": "T3, ACVR2B (Homo sapiens, UniProt Q13705)", "T3 construct": "purchased Eurofins DiscoverX (KINOMEscan)", "method": "as §1"}, "CLK2": {"target": "T4, CLK2 (Homo sapiens, UniProt P49760)", "T4 construct": "purchased Eurofins DiscoverX (KINOMEscan)", "method": "as §1"}, "NIM1": {"target": "T5, NIM1 (Homo sapiens, UniProt Q8IY84)", "T5 construct": "purchased Eurofins DiscoverX (KINOMEscan)", "method": "as §1"}, "EGFR(L858R,T790M)": {"target": "T6, EGFR(L858R,T790M) (Homo sapiens, UniProt P00533, L858R/T790M)", "T6 construct": "purchased Eurofins DiscoverX (KINOMEscan)", "method": "as §1"}, "[1]": {"target": "T7, EGFR(L747-S752del, P753S) (Homo sapiens, UniProt P00533, DEL747-752/P753S)", "T7 construct": "purchased Eurofins DiscoverX (KINOMEscan)", "method": "as §1"}, "TLK2": {"target": "T8, TLK2 (Homo sapiens, UniProt Q86UE8)", "T8 construct": "purchased Eurofins DiscoverX (KINOMEscan)", "method": "as §1"}, "BRAF(V600E)": {"target": "T9, BRAF(V600E) (Homo sapiens, UniProt P15056, V600E)", "T9 construct": "purchased Eurofins DiscoverX (KINOMEscan)", "method": "as §1"}, "MYO3B": {"target": "T10, MYO3B (Homo sapiens, UniProt Q8WXR4)", "T10 construct": "purchased Eurofins DiscoverX (KINOMEscan)", "method": "as §1"}, "RIOK3": {"target": "T11, RIOK3 (Homo sapiens, UniProt O14730)", "T11 construct": "purchased Eurofins DiscoverX (KINOMEscan)", "method": "as §1"}, "[2]": {"target": "T12, RSK3(Kin.Dom.1-N-terminal) (Homo sapiens, UniProt Q15349)", "T12 construct": "RSK3(Kin.Dom.1-N-terminal); purchased Eurofins DiscoverX (KINOMEscan)", "method": "as §1"}, "PFTK1": {"target": "T13, PFTK1 (Homo sapiens, UniProt O94921)", "T13 construct": "purchased Eurofins DiscoverX (KINOMEscan)", "method": "as §1"}, "EPHB1": {"target": "T14, EPHB1 (Homo sapiens, UniProt P54762)", "T14 construct": "purchased Eurofins DiscoverX (KINOMEscan)", "T14 sequence (P54762 18-984)": "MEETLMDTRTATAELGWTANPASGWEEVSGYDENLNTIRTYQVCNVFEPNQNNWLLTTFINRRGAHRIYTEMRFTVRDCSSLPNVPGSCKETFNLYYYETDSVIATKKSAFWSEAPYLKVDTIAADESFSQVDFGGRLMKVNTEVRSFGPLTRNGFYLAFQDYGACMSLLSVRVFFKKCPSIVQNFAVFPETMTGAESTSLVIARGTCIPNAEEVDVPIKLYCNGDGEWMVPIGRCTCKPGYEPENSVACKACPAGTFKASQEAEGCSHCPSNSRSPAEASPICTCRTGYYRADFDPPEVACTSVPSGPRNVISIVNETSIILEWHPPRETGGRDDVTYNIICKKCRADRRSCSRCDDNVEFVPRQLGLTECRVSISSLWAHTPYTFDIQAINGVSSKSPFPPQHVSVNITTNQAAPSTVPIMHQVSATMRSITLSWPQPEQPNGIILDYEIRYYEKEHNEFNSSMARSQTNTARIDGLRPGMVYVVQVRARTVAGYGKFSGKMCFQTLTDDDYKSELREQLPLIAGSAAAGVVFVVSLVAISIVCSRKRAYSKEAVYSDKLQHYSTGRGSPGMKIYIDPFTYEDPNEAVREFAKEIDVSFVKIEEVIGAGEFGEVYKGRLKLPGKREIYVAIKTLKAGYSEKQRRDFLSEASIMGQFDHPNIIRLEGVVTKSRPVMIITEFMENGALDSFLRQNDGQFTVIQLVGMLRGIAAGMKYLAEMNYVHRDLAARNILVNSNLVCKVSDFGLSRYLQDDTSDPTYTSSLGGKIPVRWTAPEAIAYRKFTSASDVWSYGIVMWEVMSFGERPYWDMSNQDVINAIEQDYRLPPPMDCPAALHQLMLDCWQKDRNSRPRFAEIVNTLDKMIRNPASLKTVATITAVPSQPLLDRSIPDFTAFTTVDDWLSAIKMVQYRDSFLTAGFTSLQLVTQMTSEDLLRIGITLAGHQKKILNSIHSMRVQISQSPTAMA", "method": "as §1"}, "TRKB": {"target": "T15, TRKB (Homo sapiens, UniProt Q16620)", "T15 construct": "purchased Eurofins DiscoverX (KINOMEscan)", "T15 sequence (Q16620 32-822)": "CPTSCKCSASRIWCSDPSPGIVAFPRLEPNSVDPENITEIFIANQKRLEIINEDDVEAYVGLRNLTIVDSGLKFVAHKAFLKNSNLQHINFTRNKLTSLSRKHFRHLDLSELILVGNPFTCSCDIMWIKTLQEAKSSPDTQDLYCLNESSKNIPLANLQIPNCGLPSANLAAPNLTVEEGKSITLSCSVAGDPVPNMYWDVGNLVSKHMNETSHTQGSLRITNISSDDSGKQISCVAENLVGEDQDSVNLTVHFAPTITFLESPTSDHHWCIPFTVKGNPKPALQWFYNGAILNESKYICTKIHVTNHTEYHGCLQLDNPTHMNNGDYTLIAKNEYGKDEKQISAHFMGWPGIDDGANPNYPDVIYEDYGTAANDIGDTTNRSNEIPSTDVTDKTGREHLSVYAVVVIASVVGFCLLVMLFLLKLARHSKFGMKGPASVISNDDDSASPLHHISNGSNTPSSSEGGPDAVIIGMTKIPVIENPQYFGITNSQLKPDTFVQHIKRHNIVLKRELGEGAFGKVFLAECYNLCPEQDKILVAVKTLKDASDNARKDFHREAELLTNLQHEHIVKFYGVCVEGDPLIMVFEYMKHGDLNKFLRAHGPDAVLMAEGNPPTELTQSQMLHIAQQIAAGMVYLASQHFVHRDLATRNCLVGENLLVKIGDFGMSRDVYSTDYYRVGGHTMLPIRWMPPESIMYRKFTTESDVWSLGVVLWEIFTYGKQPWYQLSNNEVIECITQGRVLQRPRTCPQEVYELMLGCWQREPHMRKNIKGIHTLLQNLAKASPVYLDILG", "method": "as §1"}, "GRK4": {"target": "T16, GRK4 (Homo sapiens, UniProt P32298)", "T16 construct": "purchased Eurofins DiscoverX (KINOMEscan)", "method": "as §1"}, "MELK": {"target": "T17, MELK (Homo sapiens, UniProt Q14680)", "T17 construct": "purchased Eurofins DiscoverX (KINOMEscan)", "method": "as §1"}, "LZK": {"target": "T18, LZK (Homo sapiens, UniProt O43283)", "T18 construct": "purchased Eurofins DiscoverX (KINOMEscan)", "method": "as §1"}, "HIPK1": {"target": "T19, HIPK1 (Homo sapiens, UniProt Q86Z02)", "T19 construct": "purchased Eurofins DiscoverX (KINOMEscan)", "method": "as §1"}, "CDK3": {"target": "T20, CDK3 (Homo sapiens, UniProt Q00526)", "T20 construct": "purchased Eurofins DiscoverX (KINOMEscan)", "method": "as §1"}, "[3]": {"target": "T21, RPS6KA5(Kin.Dom.1-N-terminal) (Homo sapiens, UniProt O75582)", "T21 construct": "RPS6KA5(Kin.Dom.1-N-terminal); purchased Eurofins DiscoverX (KINOMEscan)", "method": "as §1"}, "JNK3": {"target": "T22, JNK3 (Homo sapiens, UniProt P53779)", "T22 construct": "purchased Eurofins DiscoverX (KINOMEscan)", "method": "as §1"}, "CAMK2B": {"target": "T23, CAMK2B (Homo sapiens, UniProt Q13554)", "T23 construct": "purchased Eurofins DiscoverX (KINOMEscan)", "method": "as §1"}, "AKT1": {"target": "T24, AKT1 (Homo sapiens, UniProt P31749)", "T24 construct": "purchased Eurofins DiscoverX (KINOMEscan)", "method": "as §1"}, "FGFR3": {"target": "T25, FGFR3 (Homo sapiens, UniProt P22607)", "T25 construct": "purchased Eurofins DiscoverX (KINOMEscan)", "method": "as §1"}, "ALK(L1196M)": {"target": "T26, ALK(L1196M) (Homo sapiens, UniProt Q9UM73, L1196M)", "T26 construct": "purchased Eurofins DiscoverX (KINOMEscan)", "T26 sequence (Q9UM73 19-1620 L1196M)": "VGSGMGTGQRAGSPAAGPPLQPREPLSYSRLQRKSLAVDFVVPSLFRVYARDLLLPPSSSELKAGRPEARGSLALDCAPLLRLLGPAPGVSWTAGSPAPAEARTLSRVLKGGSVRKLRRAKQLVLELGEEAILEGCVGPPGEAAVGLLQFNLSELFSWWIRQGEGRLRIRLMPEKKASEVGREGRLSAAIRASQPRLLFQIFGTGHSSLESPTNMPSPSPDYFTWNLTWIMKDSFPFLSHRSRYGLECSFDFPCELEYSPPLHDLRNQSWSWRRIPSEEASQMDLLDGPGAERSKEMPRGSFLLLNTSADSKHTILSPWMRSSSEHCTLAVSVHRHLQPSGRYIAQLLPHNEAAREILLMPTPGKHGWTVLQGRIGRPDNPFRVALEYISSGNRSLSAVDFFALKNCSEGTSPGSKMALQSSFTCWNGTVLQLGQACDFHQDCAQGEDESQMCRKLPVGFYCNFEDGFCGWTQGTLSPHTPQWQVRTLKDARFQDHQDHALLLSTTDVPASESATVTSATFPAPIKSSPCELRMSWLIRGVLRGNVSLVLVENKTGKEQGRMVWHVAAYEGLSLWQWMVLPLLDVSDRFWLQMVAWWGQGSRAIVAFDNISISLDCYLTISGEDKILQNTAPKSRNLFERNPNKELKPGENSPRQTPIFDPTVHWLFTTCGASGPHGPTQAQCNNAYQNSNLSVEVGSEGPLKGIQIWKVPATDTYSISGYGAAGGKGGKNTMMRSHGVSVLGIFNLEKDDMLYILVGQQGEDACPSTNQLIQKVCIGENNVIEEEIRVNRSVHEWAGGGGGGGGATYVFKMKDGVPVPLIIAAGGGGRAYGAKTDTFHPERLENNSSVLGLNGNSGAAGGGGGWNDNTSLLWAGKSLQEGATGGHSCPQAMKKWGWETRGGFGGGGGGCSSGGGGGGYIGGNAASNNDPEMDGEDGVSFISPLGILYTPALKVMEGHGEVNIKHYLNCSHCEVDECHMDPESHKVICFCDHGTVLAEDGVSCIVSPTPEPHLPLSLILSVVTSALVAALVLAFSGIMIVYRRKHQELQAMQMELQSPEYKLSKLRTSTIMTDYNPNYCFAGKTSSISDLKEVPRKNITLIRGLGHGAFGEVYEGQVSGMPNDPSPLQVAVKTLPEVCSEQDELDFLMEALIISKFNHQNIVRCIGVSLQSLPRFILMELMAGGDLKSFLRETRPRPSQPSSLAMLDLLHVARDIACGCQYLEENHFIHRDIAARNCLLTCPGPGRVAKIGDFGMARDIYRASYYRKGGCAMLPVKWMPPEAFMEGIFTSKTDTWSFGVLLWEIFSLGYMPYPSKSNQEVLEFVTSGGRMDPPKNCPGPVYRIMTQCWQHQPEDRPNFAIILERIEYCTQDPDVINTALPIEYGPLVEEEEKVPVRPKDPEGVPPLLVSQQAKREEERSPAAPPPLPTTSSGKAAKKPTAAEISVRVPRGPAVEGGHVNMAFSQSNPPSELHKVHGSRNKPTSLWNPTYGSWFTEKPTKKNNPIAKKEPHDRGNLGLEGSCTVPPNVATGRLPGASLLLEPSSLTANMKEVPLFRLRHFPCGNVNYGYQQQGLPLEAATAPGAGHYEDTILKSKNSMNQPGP", "method": "as §1"}, "[4]": {"target": "T27, RSK1(Kin.Dom.2-C-terminal) (Homo sapiens, UniProt Q15418)", "T27 construct": "RSK1(Kin.Dom.2-C-terminal); purchased Eurofins DiscoverX (KINOMEscan)", "method": "as §1"}, "CAMK1": {"target": "T28, CAMK1 (Homo sapiens, UniProt Q14012)", "T28 construct": "purchased Eurofins DiscoverX (KINOMEscan)", "method": "as §1"}, "PDPK1": {"target": "T29, PDPK1 (Homo sapiens, UniProt O15530)", "T29 construct": "purchased Eurofins DiscoverX (KINOMEscan)", "method": "as §1"}, "MEK2": {"target": "T30, MEK2 (Homo sapiens, UniProt P36507)", "T30 construct": "purchased Eurofins DiscoverX (KINOMEscan)", "method": "as §1"}, "DLK": {"target": "T31, DLK (Homo sapiens, UniProt Q12852)", "T31 construct": "purchased Eurofins DiscoverX (KINOMEscan)", "method": "as §1"}, "SNRK": {"target": "T32, SNRK (Homo sapiens, UniProt Q9NRH2)", "T32 construct": "purchased Eurofins DiscoverX (KINOMEscan)", "T32 sequence (Q9NRH2 whole entry)": "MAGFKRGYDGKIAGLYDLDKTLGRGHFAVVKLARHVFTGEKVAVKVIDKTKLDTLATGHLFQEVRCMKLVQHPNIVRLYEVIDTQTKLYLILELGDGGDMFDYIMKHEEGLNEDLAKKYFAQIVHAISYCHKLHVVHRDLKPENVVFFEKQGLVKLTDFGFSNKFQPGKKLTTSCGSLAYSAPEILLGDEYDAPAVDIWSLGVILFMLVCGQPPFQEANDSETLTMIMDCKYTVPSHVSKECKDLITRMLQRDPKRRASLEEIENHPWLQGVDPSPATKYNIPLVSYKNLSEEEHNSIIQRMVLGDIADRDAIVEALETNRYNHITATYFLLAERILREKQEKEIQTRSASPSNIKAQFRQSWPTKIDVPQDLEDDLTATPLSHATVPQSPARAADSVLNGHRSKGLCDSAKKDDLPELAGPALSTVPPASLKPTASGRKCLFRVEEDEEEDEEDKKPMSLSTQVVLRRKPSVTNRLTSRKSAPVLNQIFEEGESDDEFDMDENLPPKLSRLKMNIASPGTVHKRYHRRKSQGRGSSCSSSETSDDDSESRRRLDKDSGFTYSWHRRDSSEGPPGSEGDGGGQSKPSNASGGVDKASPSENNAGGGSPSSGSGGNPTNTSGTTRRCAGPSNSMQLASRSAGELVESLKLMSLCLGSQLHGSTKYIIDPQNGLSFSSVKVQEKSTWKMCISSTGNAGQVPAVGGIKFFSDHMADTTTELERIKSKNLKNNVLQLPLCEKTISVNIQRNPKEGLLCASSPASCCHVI", "method": "as §1"}, "SRPK1": {"target": "T33, SRPK1 (Homo sapiens, UniProt Q96SB4)", "T33 construct": "purchased Eurofins DiscoverX (KINOMEscan)", "method": "as §1"}, "PKAC-alpha": {"target": "T34, PKAC-alpha (Homo sapiens, UniProt P17612)", "T34 construct": "purchased Eurofins DiscoverX (KINOMEscan)", "method": "as §1"}, "ULK2": {"target": "T35, ULK2 (Homo sapiens, UniProt Q8IYT8)", "T35 construct": "purchased Eurofins DiscoverX (KINOMEscan)", "method": "as §1"}, "DRAK2": {"target": "T36, DRAK2 (Homo sapiens, UniProt O94768)", "T36 construct": "purchased Eurofins DiscoverX (KINOMEscan)", "method": "as §1"}, "CDC2L5": {"target": "T37, CDC2L5 (Homo sapiens, UniProt Q14004)", "T37 construct": "purchased Eurofins DiscoverX (KINOMEscan)", "method": "as §1"}, "[5]": {"target": "T38, JAK2(JH1domain-catalytic) (Homo sapiens, UniProt O60674)", "T38 construct": "JAK2(JH1domain-catalytic); purchased Eurofins DiscoverX (KINOMEscan)", "T38 sequence (O60674 840-1132 limits assumed)": "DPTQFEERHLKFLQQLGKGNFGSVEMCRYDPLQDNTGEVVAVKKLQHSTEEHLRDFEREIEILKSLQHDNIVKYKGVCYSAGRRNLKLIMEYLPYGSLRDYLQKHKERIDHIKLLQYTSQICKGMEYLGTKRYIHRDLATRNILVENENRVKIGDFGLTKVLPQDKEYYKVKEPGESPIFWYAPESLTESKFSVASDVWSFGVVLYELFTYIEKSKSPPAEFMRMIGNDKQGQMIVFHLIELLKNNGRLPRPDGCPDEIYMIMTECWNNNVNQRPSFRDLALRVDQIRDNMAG", "method": "as §1"}, "PRKCD": {"target": "T39, PRKCD (Homo sapiens, UniProt Q05655)", "T39 construct": "purchased Eurofins DiscoverX (KINOMEscan)", "T39 sequence (Q05655 whole entry)": "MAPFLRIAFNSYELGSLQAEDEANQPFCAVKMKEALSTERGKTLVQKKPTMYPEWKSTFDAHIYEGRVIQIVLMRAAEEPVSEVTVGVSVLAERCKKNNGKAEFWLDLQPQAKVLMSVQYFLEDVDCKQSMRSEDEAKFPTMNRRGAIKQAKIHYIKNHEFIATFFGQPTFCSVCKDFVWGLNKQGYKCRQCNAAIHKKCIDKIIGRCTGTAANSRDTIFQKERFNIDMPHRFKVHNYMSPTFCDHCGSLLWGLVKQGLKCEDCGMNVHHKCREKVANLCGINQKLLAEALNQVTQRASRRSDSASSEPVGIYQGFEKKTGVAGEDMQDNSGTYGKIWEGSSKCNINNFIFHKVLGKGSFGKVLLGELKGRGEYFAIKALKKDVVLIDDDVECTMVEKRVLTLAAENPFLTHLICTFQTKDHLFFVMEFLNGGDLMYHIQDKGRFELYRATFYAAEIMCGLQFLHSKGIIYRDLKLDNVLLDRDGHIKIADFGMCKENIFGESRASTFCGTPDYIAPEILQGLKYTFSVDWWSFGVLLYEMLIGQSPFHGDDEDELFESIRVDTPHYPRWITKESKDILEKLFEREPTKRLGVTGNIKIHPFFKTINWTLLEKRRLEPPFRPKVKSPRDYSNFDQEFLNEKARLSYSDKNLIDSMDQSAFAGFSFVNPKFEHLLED", "method": "as §1"}, "ERN1": {"target": "T40, ERN1 (Homo sapiens, UniProt O75460)", "T40 construct": "purchased Eurofins DiscoverX (KINOMEscan)", "method": "as §1"}, "PIK3C2B": {"target": "T41, PIK3C2B (Homo sapiens, UniProt O00750)", "T41 construct": "purchased Eurofins DiscoverX (KINOMEscan)", "method": "as §1"}}}
{"smiles": "Brc1ccc2nccc(Nc3ccc4cn[nH]c4c3)c2c1", "note": "[Compound 35, 6-Bromo-N-(1H-indazol-6-yl)quinolin-4-amine]", "values": [{"measurement": "activity at 1 µM", "setting": "BTK", "value": 100, "unit": "%"}, {"measurement": "activity at 1 µM", "setting": "BRK", "value": 93, "unit": "%"}, {"measurement": "activity at 1 µM", "setting": "ACVR2B", "value": 36, "unit": "%"}, {"measurement": "activity at 1 µM", "setting": "CLK2", "value": 86, "unit": "%"}, {"measurement": "activity at 1 µM", "setting": "NIM1", "value": 88, "unit": "%"}, {"measurement": "activity at 1 µM", "setting": "EGFR(L858R,T790M)", "value": 98, "unit": "%"}, {"measurement": "activity at 1 µM", "setting": "[1]", "value": 66, "unit": "%"}, {"measurement": "activity at 1 µM", "setting": "TLK2", "value": 100, "unit": "%"}, {"measurement": "activity at 1 µM", "setting": "BRAF(V600E)", "value": 80, "unit": "%"}, {"measurement": "activity at 1 µM", "setting": "MYO3B", "value": 100, "unit": "%"}, {"measurement": "activity at 1 µM", "setting": "RIOK3", "value": 100, "unit": "%"}, {"measurement": "activity at 1 µM", "setting": "[2]", "value": 100, "unit": "%"}, {"measurement": "activity at 1 µM", "setting": "PFTK1", "value": 69, "unit": "%"}, {"measurement": "activity at 1 µM", "setting": "EPHB1", "value": 100, "unit": "%"}, {"measurement": "activity at 1 µM", "setting": "TRKB", "value": 85, "unit": "%"}, {"measurement": "activity at 1 µM", "setting": "GRK4", "value": 100, "unit": "%"}, {"measurement": "activity at 1 µM", "setting": "MELK", "value": 100, "unit": "%"}, {"measurement": "activity at 1 µM", "setting": "LZK", "value": 100, "unit": "%"}, {"measurement": "activity at 1 µM", "setting": "HIPK1", "value": 53, "unit": "%"}, {"measurement": "activity at 1 µM", "setting": "CDK3", "value": 96, "unit": "%"}, {"measurement": "activity at 1 µM", "setting": "[3]", "value": 100, "unit": "%"}, {"measurement": "activity at 1 µM", "setting": "JNK3", "value": 100, "unit": "%"}, {"measurement": "activity at 1 µM", "setting": "CAMK2B", "value": 100, "unit": "%"}, {"measurement": "activity at 1 µM", "setting": "AKT1", "value": 100, "unit": "%"}, {"measurement": "activity at 1 µM", "setting": "FGFR3", "value": 100, "unit": "%"}, {"measurement": "activity at 1 µM", "setting": "ALK(L1196M)", "value": 86, "unit": "%"}, {"measurement": "activity at 1 µM", "setting": "[4]", "value": 57, "unit": "%"}, {"measurement": "activity at 1 µM", "setting": "CAMK1", "value": 100, "unit": "%"}, {"measurement": "activity at 1 µM", "setting": "PDPK1", "value": 100, "unit": "%"}, {"measurement": "activity at 1 µM", "setting": "MEK2", "value": 50, "unit": "%"}, {"measurement": "activity at 1 µM", "setting": "DLK", "value": 100, "unit": "%"}, {"measurement": "activity at 1 µM", "setting": "SNRK", "value": 100, "unit": "%"}, {"measurement": "activity at 1 µM", "setting": "SRPK1", "value": 100, "unit": "%"}, {"measurement": "activity at 1 µM", "setting": "PKAC-alpha", "value": 98, "unit": "%"}, {"measurement": "activity at 1 µM", "setting": "ULK2", "value": 94, "unit": "%"}, {"measurement": "activity at 1 µM", "setting": "DRAK2", "value": 100, "unit": "%"}, {"measurement": "activity at 1 µM", "setting": "CDC2L5", "value": 73, "unit": "%"}, {"measurement": "activity at 1 µM", "setting": "[5]", "value": 98, "unit": "%"}, {"measurement": "activity at 1 µM", "setting": "PRKCD", "value": 100, "unit": "%"}, {"measurement": "activity at 1 µM", "setting": "ERN1", "value": 91, "unit": "%"}, {"measurement": "activity at 1 µM", "setting": "PIK3C2B", "value": 100, "unit": "%"}]}
